Values joined by “and” are separate entries in the source; they are usually repeats but may differ in a detail not shown here. Equal values may be shown once.
Tested on: 439559-082-T-J2-PDC complex spheroid growth
Test: Anticancer human tumor 439559-082-T-J2-PDC patient-derived colon adenocarcinoma cell line growth inhibition [Asc]
Details: for viability, T/C: stronger effect = lower value
Procedure: Multicellular complex tumor spheroid response to apoptosis pathway targeting inhibitors Alrizomadlin, Pelcitoclax, and Dasminapant in combination with a variety of drugs and investigational agents in selected tumor cell lines
The MDM2 inhibitor alrizomadlin, the Bcl-2/Bcl-xL inhibitor pelcitoclax, and the IAPs inhibitor dasminapant were evaluated both individually and in combination with standard of care and investigational anticancer small molecules within a complex spheroid model of solid tumors. . Complex spheroids include a stromal component modeled by human endothelial cells (HUVEC) and fibroblasts modeled by human mesenchymal stem cells (MSCs). The concentration ranges selected for each drug and investigational agent were based upon clinically achievable concentrations if the clinical Cmax of the agent was known.
Compounds. The drugs and investigational agents: alrizomadlin (APG-115; NSC831270), pelcitoclax (APG-1252; NSC835773), dasminapant (APG-1387;NSC834197), TAK-243 (NSC785004), copanlisib (NSC809693), olaparib (NSC753686), talazoparib (NSC767125), cobimetinib (NSC 768068), eltanexor (KPT-8602, NSC 794443), abemaciclib (NSC 768073), sotorasib (NSC818433), adagrasib (NSC 831453), MRTX-1133 (NSC 836407), Iadademestat (ORY1001, NSC 806812), and RMC-4630 (NSC839698), were obtained from the NCI Developmental Therapeutics Program Chemical Repository. The FDA-approved anticancer drug set is available from the Developmental Therapeutics Program at https://dtp.cancer.gov/organization/dscb/obtaining/available plates.htm. […] The stock solutions were prepared in dimethyl sulfoxide (DMSO, Sigma-Aldrich, St. Louis, MO, cat. D2650) at 800-fold the tested concentration and stored at -70 degrees C prior to their use. All drugs and investigational agents were tested over a range starting from a high concentration at or near the clinical Cmax and decreasing in half-log increments. If the clinical Cmax for an agent had not been determined, the highest concentration tested was 10 microM.
The patient-derived cancer (PDC) cell lines include five colon adenocarcinomas: 186277-243-T-J2-PDC, 616215-338-R-J1-PDC, 439559-082-T-J2-PDC, 463943-066-T-J2-PDC, and 519858-162-T-J1-PDC; three pancreatic carcinomas: 323965-272-R-J2-PDC, 521955-158-R6-J3-PDC, and 521955-158-R2-J5-PDC; two uterine sarcomas: 327498-152-R-J2-PDC and 993429-296-R-J1-PDC; two rhabdomyosarcomas: 755483-174-R-J1-PDC and 772245-204-R-J1-PDC; two soft tissue sarcomas: 126254-015-R-J1-PDC and 494315-158-R-J1-PDC; two malignant fibrous histiocytomas: 317291-083-R-J1-PDC and 596521-263-R-J1-PDC; two breast carcinomas: 171881-019-R-J1-PDC and 885512-296-R-J2-PDC; and one ovarian carcinoma: 6556581-035-R-J-PDC were obtained from the NCI PDMR, (https://pdmr.cancer.gov). The established cell lines HSSY-2 synovial sarcoma (RRID:CVCL 8719), SYO-1 synovial sarcoma (RRID:CVCL_7146), MPNST malignant peripheral neural sheath tumor were obtained from the Sloan Kettering Institute. The following established cell lines were purchased from the American Type Culture Collection (ATCC, Manassas, VA), Sor the received from the NCI repository:, PANC-1 pancreatic carcinoma (CRL-1469, RRID:CVCL_0480), OVCAR-5 ovarian carcinoma (RRID:CVCL_1628), OVCAR-8 ovarian carcinoma (RRID:CVCL_1629), , MCF-7 breast carcinoma (CRL-12584, RRID:CVCL_0031), MDA-MB-231 breast carcinoma (CRL-12532, RRID:CVCL_0062), NCI-H1876 small cell lung carcinoma (CRL-5902, RRID:CVCL_1503), NCI-H510A small cell lung carcinoma (HTB-184, RRID:CVCL_1565), NCI-H1417 (CRL-5869, RRID:CVCL_1469), and NCI-H196 small cell lung carcinoma (CRL-5823, RRID:CVCL_1509). Dr. Peter Houghton (Greehey Children's Cancer Research Institute, University of Texas Health Science Center, San Antonio, TX) provided Rh-18 rhabdomyosarcoma (RRID:CVCL_1659). Pooled donor human umbilical vein endothelial cells (HUVEC, Lonza, cat. CC-2519) and human mesenchymal stem cells (hMSC, Lonza, cat. PT-2501) were purchased from Lonza (Walkersville, MD).
Cell Culture. […]

[1] = compound alone, run of 10/11/2022
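Note: spheroids exposed to agents for 7 days starting day 3 after seeding.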
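Throughout, for viability, T/C: percent of DMSO vehicle control viability with 100% = vehicle.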

SMILES | IC50 (curve of compound) | viability, T/C (compound 0.0316 µM) | viability, T/C (compound 0.1 µM) | viability, T/C (compound 0.316 µM) | viability, T/C (compound 1 µM) | viability, T/C (compound 3.16 µM) | viability, T/C (compound 10 µM) | viability, T/C (compound 0.00316 µM) | viability, T/C (compound 0.01 µM) | also measured
CCN1C(C(=O)NC23CCC(C(=O)O)(CC2)CC3)C(c2cccc(Cl)c2F)C2(C(=O)Nc3cc(Cl)ccc32)C12CCCCC2 (stereo not drawn) | > 3000 nM |  |  |  |  |  |  |  |  | viability, T/C (compound 0.00949 µM): 105% and 100%; viability, T/C (compound 0.03 µM): 101% [middle of 15 runs]; viability, T/C (compound 0.0949 µM): 99.9% [middle of 15 runs]; viability, T/C (compound 0.3 µM): 96.8% [middle of 15 runs]; viability, T/C (compound 0.949 µM): 102% [middle of 15 runs]; viability, T/C (compound 3 µM): 92.1% [middle of 15 runs]; IC50 [1]: > 3000 nM
CNC(C)C(=O)NC1CN(S(=O)(=O)c2cccc(S(=O)(=O)N3CCC4CCC(C(=O)NC(c5ccccc5)c5ccccc5)N4C(=O)C(NC(=O)C(C)NC)C3)c2)CCC2CCC(C(=O)NC(c3ccccc3)c3ccccc3)N2C1=O (stereo not drawn) | > 1000 nM | 98.1% [middle of 8 runs] | 99.7% [middle of 9 runs] | 98.3% [middle of 9 runs] | 88.1% [middle of 9 runs] |  |  |  | 103% [middle of 9 runs] | IC50 (compound alone, run of 11/15/2022): > 1000 nM
COc1c(OCCCN2CCOCC2)ccc2c3n(c(=NC(=O)c4cnc(N)nc4)nc12)CCN3 | > 1000 nM | 81.6% and 87.4% and 102% | 78.7% and 76.9% and 72.9% | 80% and 71.6% and 75.5% | 58.6% and 59% and 69.4% |  |  | 100% and 101% and 93.5% | 104% (2×) and 90.9% | 
Cc1c(S(C)(=O)=O)c(-c2cc(F)cc(N3CCN(c4ccc(NS(=O)(=O)c5ccc(NC(CCN6CCC(C(=O)OCCCP(=O)(O)O)CC6)CSc6ccccc6)c(S(=O)(=O)C(F)(F)F)c5)cc4)CC3)c2)c(-c2ccc(Cl)cc2)n1C(C)C (stereo not drawn) |  |  | 97.4% [middle of 14 runs] | 97.4% [middle of 14 runs] | 91% [middle of 14 runs] | 87.2% [middle of 14 runs] | 74.9% [middle of 14 runs] |  |  | IC50 [1]: > 10000 nM
Cc1nc(N2CCC3(CC2)COC(C)C3N)c(CO)nc1Sc1ccnc(N)c1Cl (stereo not drawn) | > 3000 nM |  |  |  |  |  |  |  |  | viability, T/C (compound 0.00949 µM): 89.8% and 104% and 107%; viability, T/C (compound 0.03 µM): 93.7% and 111% and 108%; viability, T/C (compound 0.0949 µM): 102% and 99.4% and 101%; viability, T/C (compound 0.3 µM): 110% and 91.8% and 99.9%; viability, T/C (compound 0.949 µM): 99.8% and 94.1% and 92%; viability, T/C (compound 3 µM): 72.1% and 79.7% and 81.7%
NC(=O)C(=Cn1cnc(-c2cc(C(F)(F)F)cc(C(F)(F)F)c2)n1)c1cncnc1 | > 300 nM |  |  |  |  |  |  |  |  | viability, T/C (compound 0.000949 µM): 111% and 110% and 105%; viability, T/C (compound 0.003 µM): 105% and 102% and 86.8%; viability, T/C (compound 0.00949 µM): 101% and 99% and 94.4%; viability, T/C (compound 0.03 µM): 101% and 91.7% and 89.8%; viability, T/C (compound 0.0949 µM): 92.7% and 89.7% and 90.7%; viability, T/C (compound 0.3 µM): 82% and 86.4% and 78.2%
NC1CCC(NC2CC2c2ccccc2)CC1 (stereo not drawn) | > 100 nM | 109% and 103% and 96% | 112% and 106% and 95.2% |  |  |  |  | 112% and 106% and 107% | 114% and 108% and 92.8% | viability, T/C (compound 0.000316 µM): 106% and 107% and 103%; viability, T/C (compound 0.001 µM): 119% and 117% and 92.5%
O=C(c1cc(Cc2n[nH]c(=O)c3ccccc23)ccc1F)N1CCN(C(=O)C2CC2)CC1 | > 10000 nM | 98.8% and 105% and 96.8% | 111% and 109% and 90.9% | 99.9% and 95% and 96.8% | 101% and 97.8% and 111% | 105% and 104% and 106% | 102% and 100% and 83.9% |  |  | 

Further lines, with some results ahead:

IC50 (curve of compound) | SMILES | viability, T/C (compound 0.0316 µM) | viability, T/C (compound 0.1 µM) | viability, T/C (compound 0.316 µM) | viability, T/C (compound 1 µM) | viability, T/C (compound 3.16 µM) | viability, T/C (compound 10 µM) | viability, T/C (compound 0.00316 µM) | viability, T/C (compound 0.01 µM) | also measured
4300 nM and 2360 nM and 2430 nM | C#Cc1c(F)ccc2cc(O)cc(-c3ncc4c(N5CC6CCC(C5)N6)nc(OCC56CCCN5CC(F)C6)nc4c3F)c12 (stereo not drawn) | 95.9% and 87.4% and 92.5% | 77.6% and 80.5% and 82.3% | 68.5% and 59.4% and 65.4% | 64.9% and 53.9% and 55.5% | 55.5% and 55.7% and 51.2% | 41% and 37.7% and 39.6% |  |  | 
5670 nM and 5690 nM and 6540 nM | C=C(F)C(=O)N1CCN(c2nc(OCC3CCCN3C)nc3c2CCN(c2cccc4cccc(Cl)c24)C3)CC1CC#N (stereo not drawn) | 91.3% and 104% and 106% | 90% and 103% and 109% | 90.5% and 97.4% and 104% | 96.6% and 97.8% and 102% | 102% and 86.9% and 95% | 7.1% and 14.9% and 23.5% |  |  | 
> 10000 nM | C=CC(=O)N1CCN(c2nc(=O)n(-c3c(C)ccnc3C(C)C)c3nc(-c4c(O)cccc4F)c(F)cc23)C(C)C1 (stereo not drawn) | 96.5% and 102% (2×) | 114% and 106% and 101% | 103% and 102% and 108% | 104% and 106% and 114% | 108% and 106% and 92.2% | 103% (2×) and 101% |  |  | 
> 1000 nM | CCN1CCN(Cc2ccc(Nc3ncc(F)c(-c4cc(F)c5nc(C)n(C(C)C)c5c4)n3)nc2)CC1 | 89.4% and 96.5% and 95.8% | 92% and 89.7% and 89.2% | 93.1% and 92.7% and 81.8% | 84.8% and 84.4% and 70.8% |  |  | 105% and 98.4% and 99.2% | 111% and 104% and 97.7% | 
> 100 nM | Cn1ncnc1[C@H]1c2n[nH]c(=O)c3cc(F)cc(c23)N[C@@H]1c1ccc(F)cc1 | 102% and 105% and 107% | 98.1% and 92.3% and 98.5% |  |  |  |  | 97.6% and 103% and 92% | 95.5% and 95.2% and 97.6% | viability, T/C (compound 0.000316 µM): 104% and 97.5% and 103%; viability, T/C (compound 0.001 µM): 108% and 97.8% and 112%
334 nM and 240 nM and 307 nM | O=C(c1ccc(F)c(F)c1Nc1ccc(I)cc1F)N1CC(O)([C@@H]2CCCCN2)C1 | 96.9% and 81.6% and 88.7% | 63.6% and 60.9% and 69.5% | 58% and 50.6% and 49.3% | 13.8% and 24.2% and 28.6% |  |  | 101% and 106% (2×) | 95.1% and 106% and 95.4% | 

— PubChem BioAssay AID1963423 (Molecular Pharmacology Branch, DTP, NCI, 2024)
